In patent US8859574B2 (IRM LLC, priority 2008, dated 2014) one finds IC50 data, which are given here for 29 molecules.

The target of the test is T1, IGF-1R Ba/F3 (Homo sapiens, UniProt P08069).
T1 construct: fused on or other part: TEL- (or BCR-) IGF-1R in Ba/F3: the kinase part holds the site
T1 sequence (P08069 999-1274 limits assumed): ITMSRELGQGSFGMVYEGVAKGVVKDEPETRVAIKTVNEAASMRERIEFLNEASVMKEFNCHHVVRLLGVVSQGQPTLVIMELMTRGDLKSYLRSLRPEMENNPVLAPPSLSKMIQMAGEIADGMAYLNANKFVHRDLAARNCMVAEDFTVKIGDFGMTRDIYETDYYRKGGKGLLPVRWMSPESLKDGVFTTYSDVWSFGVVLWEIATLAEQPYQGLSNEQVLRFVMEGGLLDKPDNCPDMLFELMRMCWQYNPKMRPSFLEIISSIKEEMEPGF
Description: Ba/F3 Cell Viability Inhibition Assay (IGF-1R Ba/F3). Conditions: Tel-TK transformed Ba/F3 cells, 48 hours, Britelite luminescence. Format: cell-based, murine. The gist of the method:
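IL-3-independent murine Ba/F3 cells transformed with a TEL/BCR-fused IGF-1R kinase were seeded at 3750 cells/well and exposed to serially diluted compound for 48 h at 37 °C. Viability was read by Britelite luminescence. IC50 is the concentration giving 50% of DMSO-control viability, from a logistic fit.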
Turning to `Cc1cc(Nc2nc(Nc3cc(C)c([C@H]4CCN[C@@H](C)C4)cc3F)ncc2Cl)n[nH]1` (relative stereo) [Compound 280, 5-chloro-N2-(2-fluoro-5-methyl-4-((cis)-2-methylpiperidin-4-yl)phenyl)-N4-(5-methyl-1H-pyrazol-3-yl)pyrimidine-2,4-diamine], half-maximal inhibition (IC50) was put at 163 nM.
Then `Cc1cc(Nc2nc(Nc3cc(C)c(C4CCN(CCCS(=O)(=O)N5CCC5)CC4)cc3F)ncc2Cl)n[nH]1` [Compound 243, N2-(4-(1-(3-(azetidin-1-ylsulfonyl)propyl)piperidin-4-yl)-2-fluoro-5-methylphenyl)-5-chloro-N4-(5-methyl-1H-pyrazol-3-yl)pyrimidine-2,4-diamine], with 76 nM; and `Cc1cc(Nc2nc(Nc3cc(C)c(C4CCN(S(C)(=O)=O)CC4)cc3C)ncc2Cl)n[nH]1` [Compound 63, 5-chloro-N2-(2,5-dimethyl-4-(1-(methylsulfonyl)piperidin-4-yl)phenyl)-N4-(5-methyl-1H-pyrazol-3-yl)pyrimidine-2,4-diamine], with 2 nM; and `Cc1cc(C2CCNCC2)c(C)cc1Nc1ncc(Cl)c(Nc2ccc[nH]c2=O)n1` [Compound 158, 3-(5-chloro-2-(2,5-dimethyl-4-(piperidin-4-yl)phenylamino)pyrimidin-4-ylamino)pyridin-2(1H)-one], with 62 nM.
The same measure for `Cc1cc(Nc2nc(Nc3cc(C)c(C4CCN(C(=O)CN5CCCC5)CC4)cc3F)ncc2Cl)n[nH]1` [Compound 99, 1-(4-(4-(5-chloro-4-(5-methyl-1H-pyrazol-3-ylamino)pyrimidin-2-ylamino)-5-fluoro-2-methylphenyl)piperidin-1-yl)-2-(pyrrolidin-1-yl)ethanone]: 38 nM; for `Cc1cc(Nc2nc(Nc3cc(C)c(C4CCCCN4Cc4c(C)noc4C)cc3C)ncc2Cl)n[nH]1` (centres unmarked) [Compound 191, 5-chloro-N2-(4-(1-((3,5-dimethylisoxazol-4-yl)methyl)piperidin-2-yl)-2,5-dimethylphenyl)-N4-(5-methyl-1H-pyrazol-3-yl)pyrimidine-2,4-diamine]: 113 nM.
`Cc1cc(Nc2nc(Nc3cc(C)c(C4CCN(C(=O)C5(N)CCC5)CC4)cc3C)ncc2Cl)n[nH]1` [Compound 91, (1-aminocyclobutyl)(4-(4-(5-chloro-4-(5-methyl-1H-pyrazol-3-ylamino)pyrimidin-2-ylamino)-2,5-dimethylphenyl)piperidin-1-yl)methanone]: the IC50 – broadly, the concentration at which inhibition is half-maximal – amounted to 52 nM.
Then `Cc1cc(Nc2nc(Nc3cc(C)c(C4CCN(C5CCSCC5)CC4)cc3C)ncc2Cl)n[nH]1` [Compound 174, 5-chloro-N2-(2,5-dimethyl-4-(1-(tetrahydro-2H-thiopyran-4-yl)piperidin-4-yl)phenyl)-N4-(5-methyl-1H-pyrazol-3-yl)pyrimidine-2,4-diamine], with 8 nM; and `Cc1cc(Nc2ncc(Cl)c(Nc3cc(C4CC4)[nH]n3)n2)c(F)cc1C1CCN(C2CC2)CC1` [Compound 255, 5-chloro-N4-(5-cyclopropyl-1H-pyrazol-3-yl)-N2-(4-(1-cyclopropylpiperidin-4-yl)-2-fluoro-5-methylphenyl)pyrimidine-2,4-diamine], with 228 nM; and `Cc1cc(Nc2nc(Nc3cc(Cl)c(C4CCN(C(=O)CN5CCC5)CC4)cc3C)ncc2Cl)n[nH]1` [Compound 96, 2-(azetidin-1-yl)-1-(4-(2-chloro-4-(5-chloro-4-(5-methyl-1H-pyrazol-3-ylamino)pyrimidin-2-ylamino)-5-methylphenyl)piperidin-1-yl)ethanone], with 24 nM.
Then `Cc1cc(Nc2nc(Nc3cc(C)c(C4CCN(CCC(=O)N5CCCC5)CC4)cc3C)ncc2Cl)n[nH]1` [Compound 238, 3-(4-(4-(5-chloro-4-(5-methyl-1H-pyrazol-3-ylamino)pyrimidin-2-ylamino)-2,5-dimethylphenyl)piperidin-1-yl)-1-(pyrrolidin-1-yl)propan-1-one], with 39 nM; and `Cc1cc(Nc2nc(Nc3cc(C)c(C4CCN(C(=O)NCCN(C)C)CC4)cc3F)ncc2Cl)n[nH]1` [Compound 109, 4-(4-(5-chloro-4-(5-methyl-1H-pyrazol-3-ylamino)pyrimidin-2-ylamino)-5-fluoro-2-methylphenyl)-N-(2-(dimethylamino)ethyl)piperidine-1-carboxamide], with 60 nM; and `Cc1cc(Nc2nc(Nc3cc(Cl)c(C4CCN(C(=O)CN(C)C)CC4)cc3Cl)ncc2Cl)n[nH]1` [Compound 77, 1-(4-(2,5-dichloro-4-(5-chloro-4-(5-methyl-1H-pyrazol-3-ylamino)pyrimidin-2-ylamino)phenyl)piperidin-1-yl)-2-(dimethylamino)ethanone], with 7 nM.
The same measure for `CC(=O)N1CCC(C(=O)N2CCC(c3cc(F)c(Nc4ncc(Cl)c(Nc5cc(C)[nH]n5)n4)cc3C)CC2)CC1` [Compound 114]: 48 nM; for `Cc1cc(Nc2nc(Nc3cc(C)c(C4CCN(CCC(F)(F)F)CC4)cc3C)ncc2Cl)n[nH]1` [Compound 25, 5-chloro-N2-(2,5-dimethyl-4-(1-(3,3,3-trifluoropropyl)piperidin-4-yl)phenyl)-N4-(5-methyl-1H-pyrazol-3-yl)pyrimidine-2,4-diamine]: 31 nM.
`Cc1cc(Nc2nc(Nc3cc(C)c(C4CCN([C@@H](C)C(N)=O)CC4)cc3C)ncc2Cl)n[nH]1` [Compound 166, (S)-2-(4-(4-(5-chloro-4-(5-methyl-1H-pyrazol-3-ylamino)pyrimidin-2-ylamino)-2,5-dimethylphenyl)piperidin-1-yl)propanamide]: the IC50 is 7 nM.
As to `Cc1cc(Nc2nc(Nc3cc(C)c(C4CCN(C(=O)C5CNC5)CC4)cc3F)ncc2Cl)n[nH]1` [Compound 131, Azetidin-3-yl(4-(4-(5-chloro-4-(5-methyl-1H-pyrazol-3-ylamino)pyrimidin-2-ylamino)-5-fluoro-2-methylphenyl)piperidin-1-yl)methanone], 1250 nM corresponded to half-maximal inhibition (IC50).
Then `Cc1cc(Nc2nc(Nc3cc(C)c(C4CCN(C5CC5)CC4)cc3C)ncc2Cl)n[nH]1` [Compound 250, 5-chloro-N2-(4-(1-cyclopropylpiperidin-4-yl)-2,5-dimethylphenyl)-N4-(5-methyl-1H-pyrazol-3-yl)pyrimidine-2,4-diamine], with 25 nM; and `Cc1cc(Nc2nc(Nc3cc(C)c(C4CCN(C(=O)[C@@H]5CCCCN5C(C)C)CC4)cc3F)ncc2Cl)n[nH]1` [Compound 125, (S)-(4-(4-(5-chloro-4-(5-methyl-1H-pyrazol-3-ylamino)pyrimidin-2-ylamino)-5-fluoro-2-methylphenyl)piperidin-1-yl)(1-isopropylpiperidin-2-yl)methanone], with 12 nM.
The same measure for `Cc1cc(Nc2nc(Nc3cc(C)c(C4CCN(Cc5ccnnc5)CC4)cc3F)ncc2Cl)n[nH]1` [Compound 316, 5-chloro-N2-(2-fluoro-5-methyl-4-(1-(pyridazin-4-ylmethyl)piperidin-4-yl)phenyl)-N4-(5-methyl-1H-pyrazol-3-yl)pyrimidine-2,4-diamine]: 27 nM; for `Cc1cc(Nc2nc(Nc3cc(C(F)(F)F)c(N4CCOCC4)cc3F)ncc2Cl)n[nH]1` [Compound 153, 5-chloro-N2-(2-fluoro-4-morpholino-5-(trifluoromethyl)phenyl)-N4-(5-methyl-1H-pyrazol-3-yl)pyrimidine-2,4-diamine]: 91 nM; for `Cc1cc(Nc2nc(Nc3cc(C)c(C4CCN(CC5CC5(F)F)CC4)cc3F)ncc2Cl)n[nH]1` (centres unmarked) [Compound 235, 5-chloro-N-(4-(1-((2,2-difluorocyclopropyl)methyl)piperidin-4-yl)-2-fluoro-5-methylphenyl)-N^4-(5-methyl-1H-pyrazol-3-yl)pyrimidine-2,4-diamine]: 63 nM.
For `Cc1cc(Nc2nc(Nc3cc(C)c(C4CCN([C@H](C)C(N)=O)CC4)cc3F)ncc2Cl)n[nH]1` [Compound 165, (R)-2-(4-(4-(5-chloro-4-(5-methyl-1H-pyrazol-3-ylamino)pyrimidin-2-ylamino)-5-fluoro-2-methylphenyl)piperidin-1-yl)propanamide], it took 38 nM to reach half-maximal inhibition (IC50).
The same measure for `CNC(=O)CN1CCC(c2cc(C)c(Nc3ncc(Cl)c(Nc4cc(C5CC5)[nH]n4)n3)cc2C)CC1` [Compound 33, 2-(4-(4-(5-chloro-4-(5-cyclopropyl-1H-pyrazol-3-ylamino)pyrimidin-2-ylamino)-2,5-dimethylphenyl)piperidin-1-yl)-N-methylacetamide]: 6 nM; for `Cc1cc(Nc2nc(Nc3cc(C)c(N4CCNCC4=O)cc3C)ncc2Cl)n[nH]1` [Compound 155, 1-(4-(5-chloro-4-(5-methyl-1H-pyrazol-3-ylamino)pyrimidin-2-ylamino)-2,5-dimethylphenyl)piperazin-2-one]: 1650 nM.
Then `CCS(=O)(=O)CCN1CCC(c2cc(F)c(Nc3ncc(Cl)c(Nc4cc(C)[nH]n4)n3)cc2C)CC1` [Compound 57, 5-chloro-N2-(4-(1-(2-(ethylsulfonyl)ethyl)piperidin-4-yl)-2-fluoro-5-methylphenyl)-N4-(5-methyl-1H-pyrazol-3-yl)pyrimidine-2,4-diamine], with 21 nM.
The same measure for `Cc1cc(Nc2nc(Nc3cc(C)c(C4CCN(C(N)=O)CC4)cc3C)ncc2Cl)n[nH]1` [Compound 72, 4-(4-(5-chloro-4-(5-methyl-1H-pyrazol-3-ylamino)pyrimidin-2-ylamino)-2,5-dimethylphenyl)piperidine-1-carboxamide]: 6 nM; for `Cc1cc(Nc2nc(Nc3cc(C)c(C4CCNCC4)cc3C)ncc2C(F)(F)F)n[nH]1` [Compound 257, N^2-(2,5-dimethyl-4-(piperidin-4-yl)phenyl)-N^4-(5-methyl-1H-pyrazol-3-yl)-5-(trifluoromethyl)pyrimidine-2,4-diamine]: 64 nM.
Molecule `Cc1cc(Nc2nc(Nc3cc(C)c(C4CCN(CCO)CC4)cc3F)ncc2Cl)n[nH]1` [Compound 22, 2-(4-(4-(5-chloro-4-(5-methyl-1H-pyrazol-3-ylamino)pyrimidin-2-ylamino)-5-fluoro-2-methylphenyl)piperidin-1-yl)ethanol] showed an IC50 of 59 nM.
